In article PMC10675732 (Viruses, 2023):
Where “and” joins values, the source holds several entries; their conditions need not be identical. Equal entries are not always repeated. Where two headings read alike, the source gives them in different places. Marks after values point to notes of the source that are not given here.

How the values were obtained:
[1] = test system: Parent virus (A/PR/8/34 (H1N1)); test: microbe, parasite or virus in culture; assay type: cell-based; conditions: Influenza A virus, plaque reduction assay
A/PR/8/34 (H1N1) [2] = assay type: in vivo, influenza A virus
B/Hong Kong/5/72 [3] = assay type: in vivo, influenza B virus
A/PR/8/34 (H1N1) [4] = conditions: viral yield; cited from earlier work
B/Hong Kong/5/72 [5] = conditions: viral yield; cited from earlier work
influenza A viruses = conditions: range over influenza A viruses, previous study; cited from earlier work
influenza B viruses = conditions: range over influenza B viruses, previous study; cited from earlier work
[6] = test system: seasonal influenza A viruses; conditions: cited from earlier work
in vivo = conditions: mouse, sc
[7] = cited from earlier work
[8] = human, in vivo, po; cited from earlier work
[9] = mouse, in vivo, po; cited from earlier work

For `NC(=O)c1nc(F)c[nH]c1=O` [Favipiravir], which EC50 [1] is on record?
Its EC50 is 22300 ± 1010 nM.

With `O=C1c2c(O)c(=O)ccn2N([C@@H]2c3ccccc3SCc3c2ccc(F)c3F)[C@@H]2COCCN12` [baloxavir acid] as the molecule, how does the “Body weight loss induced by infection” value (A/PR/8/34 (H1N1) [2]; in vivo) read?
The value was “suppressed body weight loss”.

And the Mortality (A/PR/8/34 (H1N1) [2]; in vivo)?
The Mortality was “complete elimination of mortality”.

What about the “Mortality due to infection” value (A/PR/8/34 (H1N1) [2]; in vivo) of the same molecule?
Its value is “completely eliminated mortality”.

And the Survival (A/PR/8/34 (H1N1) [2]; in vivo)?
Its Survival is “all mice survived”.

What about the “Survival Rate” value (A/PR/8/34 (H1N1) [2]; in vivo) of the same molecule?
The value was 100 ** %.

What about the “Virus titres in the lungs compared to the oseltamivir phosphate group” value (A/PR/8/34 (H1N1) [2]; in vivo) of the same molecule?
Its value is “significantly lower”.

And the “Virus titres in the lungs compared to the vehicle-treated group” value (A/PR/8/34 (H1N1) [2]; in vivo)?
Its value is “significantly low”.

What about the “Body weight loss induced by infection” value (B/Hong Kong/5/72 [3]; in vivo) of the same molecule?
Its value is “suppressed body weight loss”.

What about the “Mortality due to infection” value (B/Hong Kong/5/72 [3]; in vivo) of the same molecule?
Its value is “completely eliminated mortality”.

And the Survival (B/Hong Kong/5/72 [3]; in vivo)?
Its Survival is “all mice survived”.

What about the “Survival Rate” value (B/Hong Kong/5/72 [3]; in vivo) of the same molecule?
The value was 50 * % and 100 ** % and 80 * % and 50%.

And the Survival rate (B/Hong Kong/5/72 [3]; in vivo)?
The Survival rate was no more than 50%.

What about the Survival vs vehicle (B/Hong Kong/5/72 [3]; in vivo) of the same molecule?
Its Survival vs vehicle is “significantly improved survival”.

And the “Virus titres in the lungs compared to the oseltamivir phosphate group” value (B/Hong Kong/5/72 [3]; in vivo)?
The value was “significantly lower”.

What about the “Virus titres in the lungs compared to the vehicle-treated group” value (B/Hong Kong/5/72 [3]; in vivo, sc, 10 mg/kg) of the same molecule?
The value was “significantly low”.

What about the EC50 [1] of the same molecule?
Its EC50 is 1.69 ± 0.57 nM.

What about the EC90 (A/PR/8/34 (H1N1) [4]) of the same molecule?
The EC90 was 0.79 nM.

What about the EC90 (B/Hong Kong/5/72 [5]) of the same molecule?
The EC90 was 2.2 nM.

And the EC90 (influenza A viruses)?
Its EC90 is 0.46 to 0.98 nM.

And the EC90 (influenza B viruses)?
The EC90 was 2.2 to 6.5 nM.

What about the “mean EC50 against seasonal influenza A viruses relative to influenza B viruses” value [6] of the same molecule?
Its value is “five to ten times lower”.

What about the half-life (in vivo; female, BALB/c, 3.2 mg/kg) of the same molecule?
Its half-life is 74.2 h.

What about the half-life (in vivo; female, BALB/c, 6.4 mg/kg) of the same molecule?
The half-life was 84.2 h.

What about the half-life (in vivo; 10 mg/kg) of the same molecule?
The half-life was 49.9 h.

What about the Plasma concentration ([7]; 10 mg/kg s.c. single dose, 2 h after dosing) of the same molecule?
The Plasma concentration was 44.0 ng/mL.

What about the Plasma concentration ([7]; 10 mg/kg s.c. single dose, 4 h after dosing) of the same molecule?
Its Plasma concentration is 47.2 ng/mL.

And the Plasma concentration ([7]; 10 mg/kg s.c. single dose, 8 h after dosing)?
The Plasma concentration was 34.4 ng/mL.

What about the Plasma concentration ([7]; 10 mg/kg s.c. single dose, 48 h after dosing) of the same molecule?
The Plasma concentration was 17.8 ng/mL.

What about the Plasma concentration ([7]; 10 mg/kg s.c. single dose, 120 h after dosing) of the same molecule?
Its Plasma concentration is 6.79 ng/mL.

And the Plasma concentration ([7]; 10 mg/kg s.c. single dose, 168 h after dosing)?
Its Plasma concentration is 6.51 ng/mL.

And the Plasma concentration ([7]; 10 mg/kg s.c. single dose, 216 h after dosing)?
The Plasma concentration was 5.97 ng/mL.

And the Plasma concentration ([7]; mouse, in vivo)?
The Plasma concentration was 26.1 ng/mL.

And the “Half-life of baloxavir acid in humans” value [8]?
The value was 49 to 91 h.

What about the “Half-life of baloxavir acid in plasma” value [9] of the same molecule?
The value was 2.2 to 3.1 h.

For `CCOC(=O)C1=C[C@@H](OC(CC)CC)[C@H](NC(C)=O)[C@@H](N)C1` [oseltamivir phosphate], which “Body weight loss induced by infection” value (A/PR/8/34 (H1N1) [2]; in vivo) is on record?
The value was “suppressed body weight loss”.

What about the “Virus titres in the lungs compared to the vehicle-treated group” value (A/PR/8/34 (H1N1) [2]; in vivo) of the same molecule?
The value was “significantly low”.

And the Mice survived (A/PR/8/34 (H1N1) [2]; n = 10)?
Its Mice survived is 100%.

And the “Body weight loss induced by infection” value (B/Hong Kong/5/72 [3]; in vivo)?
The value was “suppressed body weight loss”.

What about the Mice survived (B/Hong Kong/5/72 [3]; n = 10) of the same molecule?
The Mice survived was 70%.
